In article PMC7957578, “N-(1,3,4-Oxadiazol-2-yl)Benzamides as Antibacterial Agents against Neisseria gonorrhoeae” (International Journal of Molecular Sciences, 2021):
Values after ≈ are worked out from the molar mass of the structure shown. Where two headings read alike, the source gives them in different places.

Assays:
[1] = test system: VRE. faecalisATCC 51575; assay: MIC/MBC (CLSI broth microdilution) against VRE faecalis ATCC 51575; type: cell-based; settings: Enterococcus, VRE faecalis ATCC 51575
Procedure: (§1) The minimum inhibitory concentrations (MICs) of the tested compounds and control drugs, linezolid, vancomycin, and gentamicin, were determined using the broth microdilution method according to the guidelines outlined by the Clinical and Laboratory Standards Institute (CLSI) against clinically relevant bacterial (Staphylococcus aureus, MRSA, Escherichia coli, Enterococcus faecalis and Enterococcus faecium strains. S. aureus, MRSA, E. coli, Enterococcus faecalis and Enterococcus faecium were grown aerobically overnight on tryptone soy agar (TSA) plates at 37° C. Afterwards, a bacterial solution equivalent to 0.5 McFarland standard was prepared and diluted in cation-adjusted Mueller–Hinton broth (CAMHB) (for S. aureus, MRSA, and E. coli) to achieve a bacterial concentration of about 5 × 10^5 CFU/mL. Enterococcus faecalis and Enterococcus faecium 0.5 McFarland standard solution was diluted in tryptone soy broth (TSB) to achieve a bacterial concentration of about 5 × 10^5 CFU/mL. Compounds and control drugs were added in the first row of 96-well plates and serially diluted with the corresponding media containing bacteria. Plates were then incubated as previously described. […] The minimum bactericidal concentration (MBC) was tested by spotting 4 µL from wells with no growth onto TSA plates. Plates were incubated at 37 ° C for at least 18 h before recording the MBC. The MBC was categorized as the lowest concentration that reduced bacterial growth by 99.9% [45, 46, 47].

[2] = test system: MRSA USA300; assay: MIC/MBC (CLSI broth microdilution) against MRSA USA300; type: cell-based, methicillin-resistant Staphylococcus aureus; settings: Staphylococcus aureus, MRSA USA300
Procedure: as §1

[3] = test system: S. aureus ATCC 25923; assay: MIC/MBC (CLSI broth microdilution) against S. aureus ATCC 25923; type: cell-based; settings: Staphylococcus aureus, ATCC25923, S. aureus ATCC 25923
Procedure: as §1

[4] = test system: N. gonorrhoeae 194; assay: MIC/MBC against N. gonorrhoeae clinical isolate 194; type: cell-based; settings: Neisseria gonorrhoeae
Procedure: (§2) Briefly, bacteria were grown overnight on chocolate agar II at 37° C in the presence of 5% CO2. Afterwards, a bacterial suspension equivalent to 1.0 McFarland standard was prepared and diluted in brucella broth supplemented with yeast extract, neopeptone, hematin, pyridoxal, and NAD. Test agents were added in the first row of the 96-well plates and serially diluted along the plates. Plates were then incubated at 37° C in the presence of 5% CO2 for 24 h. […] Plates were then incubated at 37 ° C in the presence of 5% CO2 for 24 h. The MBC was categorized as the lowest concentration that reduced bacterial growth by 99.9% [45, 46, 47].

[5] = test system: E. coli BW25113 (wild-type strain); assay: MIC/MBC (CLSI broth microdilution) against E. coli BW25113 wild type; type: cell-based, Escherichia coli; settings: E. coli BW25113 wild-type strain
Procedure: as §1

[6] = test system: VRE. faecium ATCC 700221; assay: MIC/MBC (CLSI broth microdilution) against VRE faecium ATCC 700221; type: cell-based; settings: Enterococcus, VRE faecium ATCC 700221
Procedure: as §1

[7] = test system: N. gonorrhoeae WHO L; assay: MIC/MBC against N. gonorrhoeae WHO L reference strain; type: cell-based; settings: Neisseria gonorrhoeae
Procedure: as §2

[8] = test system: tested bacterial strains (Table 3); assay: MBC versus MIC against the panel of Gram-positive and Gram-negative pathogens; type: cell-based; settings: MBCs more than three-fold higher than MICs, strains of Table 3
Procedure: While the focus of these new N-(1,3,4-oxadiazol-2-yl)benzamides is towards N. gonorrhoeae, we proceeded to test their activity against other Gram-positive and Gram-negative pathogens. Intriguingly, HSGN-235, HSGN-237, and HSGN-238 had potent activity against the tested Gram-positive bacterial pathogens. For instance, all three compounds had potent activity against the staphylococcal strains, with MICs ranging from 0.25 to 1 µg/mL (Table 3). Furthermore, HSGN-235, HSGN-237, and HSGN-238 maintained potent activity against clinically relevant Gram-positive bacterial pathogens such as vancomycin-resistant enterococci (VRE) and Listeria monocytogenes (Table 3). Additionally, we moved to test if HSGN-235, HSGN-237, and HSGN-238 were active against other Gram-negative bacterial pathogens. […] This lack of activity against Gram-negative bacteria appears to be due to HSGN-235, HSGN-237, and HSGN-238 being a substrate for efflux.
The minimum inhibitory concentrations (MICs) of the tested compounds and control drugs, linezolid, vancomycin, and gentamicin, were determined using the broth microdilution method according to the guidelines outlined by the Clinical and Laboratory Standards Institute (CLSI) against clinically relevant bacterial (Staphylococcus aureus, MRSA, Escherichia coli, Enterococcus faecalis and Enterococcus faecium strains. S. aureus, MRSA, E. coli, Enterococcus faecalis and Enterococcus faecium were grown aerobically overnight on tryptone soy agar (TSA) plates at 37° C. Afterwards, a bacterial solution equivalent to 0.5 McFarland standard was prepared and diluted in cation-adjusted Mueller–Hinton broth (CAMHB) (for S. aureus, MRSA, and E. coli) to achieve a bacterial concentration of about 5 × 10^5 CFU/mL. Enterococcus faecalis and Enterococcus faecium 0.5 McFarland standard solution was diluted in tryptone soy broth (TSB) to achieve a bacterial concentration of about 5 × 10^5 CFU/mL. Compounds and control drugs were added in the first row of 96-well plates and serially diluted with the corresponding media containing bacteria. […]

[9] = test system: N. gonorrhoeae 200; assay: MIC/MBC against N. gonorrhoeae clinical isolate 200; type: cell-based; settings: Neisseria gonorrhoeae
Procedure: as §2

[10] = test system: N. gonorrhoeae 197; assay: MIC/MBC against N. gonorrhoeae clinical isolate 197; type: cell-based; settings: Neisseria gonorrhoeae
Procedure: as §2

[11] = test system: E. faecalis ATCC 29212; assay: MIC/MBC (CLSI broth microdilution) against E. faecalis ATCC 29212; type: cell-based; settings: Enterococcus faecalis, ATCC29212, E. faecalis ATCC 29212
Procedure: as §1

[12] = test system: E. coli JW55031 (TolC Mutant); assay: MIC/MBC (CLSI broth microdilution) against E. coli TolC mutant; type: cell-based; settings: Escherichia coli
Procedure: as §1

[13] = test system: VRE. faecalis ATCC 51299; assay: MIC/MBC (CLSI broth microdilution) against VRE faecalis ATCC 51299; type: cell-based; settings: Enterococcus, VRE faecalis ATCC 51299
Procedure: as §1

[14] = test system: panel drug-resistant pathogenic N. gonorrhoeae strains; assay: MIC/MBC against a panel of drug-resistant N. gonorrhoeae strains; type: cell-based, Neisseria gonorrhoeae; settings: MBC the same as or one-fold higher than MIC
[15] = test system: N. gonorrhoeae 165; assay: MIC/MBC against N. gonorrhoeae clinical isolate 165; type: cell-based; settings: Neisseria gonorrhoeae
Procedure: as §2

[16] = test system: N. gonorrhoeae; assay: MIC against N. gonorrhoeae in presence of fetal bovine serum; type: cell-based; settings: Neisseria gonorrhoeae, 24 h
[17] = test system: L. monocytogenes ATCC 19115; assay: MIC/MBC (CLSI broth microdilution) against L. monocytogenes ATCC 19115; type: cell-based; settings: Listeria monocytogenes, ATCC19115, L. monocytogenes ATCC 19115
[18] = test system: human colorectal cells (Caco-2); assay: In vitro cytotoxicity, MTS assay; type: cell-based
Procedure: HSGN-237 and -238 were assayed for potential cytotoxicity against a human colorectal adenocarcinoma (Caco-2) cell line, as described previously. Briefly, tested compounds were incubated with caco-2 cells for 24 and 48 h. Then, the cells were incubated with MTS (3-(4,5-dimethylthiazol-2-yl)-5-(3-carboxymethoxyphenyl)-2-(4-sulfophenyl)-2H-tetrazolium) reagent for 4 h before measuring the absorbance values (OD490).
Figure 2 In vitro cytotoxicity assessment of HSGN-237 and -238 (tested in triplicate) against human colorectal cells (Caco-2) after (A) 24 h, and (B) 48 h, using the 3-(4,5-dimethylthiazol-2-yl)-5-(3-carboxymethoxyphenyl)-2-(4-sulfophenyl)-2H-tetrazolium (MTS) assay. Results are presented as percent viable cells relative to DMSO (negative control). Error bars represent standard deviation values. A two-way ANOVA, with post hoc Dunnet’s multiple comparisons test, determined the statistical difference between the values obtained for the compound and DMSO. Asterisks denote statistically significant differences between treatments of cells with either HSGN-237 or -238 as compared to DMSO-treated cells. The experiment was repeated 3 independent times.

[19] = test system: N. gonorrhoeae strain 181; assay: MIC by broth microdilution against N. gonorrhoeae strain 181; type: cell-based, Neisseria gonorrhoeae; settings: Neisseria gonorrhoeae; N. gonorrhoeae strain 181; read-out: MIC
Procedure: as §2

[20] = test system: N. gonorrhoeae 166; assay: MIC/MBC against N. gonorrhoeae clinical isolate 166; type: cell-based; settings: Neisseria gonorrhoeae
Procedure: as §2

[21] = test system: Caco-2 bilayers; assay: Caco-2 bidirectional permeability assay; type: in vitro ADME, human; settings: Caco-2 permeability classification
Excerpt: Oral bioavailability is a highly important consideration when developing bioactive molecules as therapeutic agents. A critical factor of oral bioavailability is human intestinal absorption. The Caco-2 bidirectional permeability assay is the most widely used in vitro model for predicting if a bioactive molecule can have adequate systemic absorption. Thus, we selected HSGN-238 to act as a model to analyze the drug-like properties of newly synthesized N-(1,3,4-oxadiazol-2-yl)benzamides.
Assay and data analysis were performed by Eurofins Panlabs (MO, USA) according to a previously reported protocol. The apparent permeability coefficient (Papp) of the tested agents was calculated using the equation below: Papp(cm/s)=VR∗CR,end/Δt∗1/A∗(CD,mid−CR,mid), where VR is the volume of the receiver chamber. CR,end is the concentration of the test compound in the receiver chamber at the end time point, Δt is the incubation time, and A is the surface area of the cell monolayer. CD,mid is the calculated mid-point concentration of the test compound in the donor side, which is the mean value of the donor concentration at 0 minutes and the donor concentration at the end time point. CR,mid is the mid-point concentration of the test compound in the receiver side, which is one half of the receiver concentration at the end time point. Concentrations of the test compound were expressed as peak areas of the test compound.

## O=C(Nc1nnc(-c2cccc(F)c2)o1)c1ccc(OC(F)(F)F)cc1 [HSGN-237, N-(5-(3-Fluorophenyl)-1,3,4-oxadiazol-2-yl)-4-(trifluoromethoxy)benzamide]
[1]; read-out: MBC
  MBC: > 64 µg/mL
[1]; read-out: MIC
  MIC: 1 µg/mL (≈ 2.72 µM)
[2]; read-out: MBC
  MBC: 32 µg/mL (≈ 87.1 µM)
[2]; read-out: MIC
  MIC: 0.25 µg/mL (≈ 0.681 µM)
[3]; read-out: MBC
  MBC: > 64 µg/mL
[3]; read-out: MIC
  MIC: 0.25 µg/mL (≈ 0.681 µM)
[4]
  MBC: 0.06 µg/mL (≈ 0.163 µM)
  MIC: 0.03 µg/mL (≈ 0.0817 µM)
[5]
  MIC: >8 µg/mL
[5]; Escherichia coli, read-out: MBC
  MBC: > 8 µg/mL
[5]; Escherichia coli, read-out: MIC
  MIC: > 8 µg/mL
[6]; read-out: MBC
  MBC: 8 µg/mL (≈ 21.8 µM)
[6]; read-out: MIC
  MIC: 0.5 µg/mL (≈ 1.36 µM)
[7]
  MBC: 0.06 µg/mL (≈ 0.163 µM)
  MIC: 0.06 µg/mL (≈ 0.163 µM)
[8]
  type of activity from MBC versus MIC: bacteriostatic agents
[9]
  MBC: 0.06 µg/mL (≈ 0.163 µM)
  MIC: 0.06 µg/mL (≈ 0.163 µM)
[10]
  MBC: 0.06 µg/mL (≈ 0.163 µM)
  MIC: 0.03 µg/mL (≈ 0.0817 µM)
[11]; read-out: MBC
  MBC: > 64 µg/mL
[11]; read-out: MIC
  MIC: 1 µg/mL (≈ 2.72 µM)
[12]
  MBC: 16 µg/mL (≈ 43.6 µM)
  MIC: 0.25 µg/mL (≈ 0.681 µM)
[13]; read-out: MBC
  MBC: 16 µg/mL (≈ 43.6 µM)
[13]; read-out: MIC
  MIC: 0.5 µg/mL (≈ 1.36 µM)
[14]
  type of activity from MBC versus MIC: bactericidal activity
[15]
  MBC: 0.125 µg/mL (≈ 0.34 µM)
  MIC: 0.06 µg/mL (≈ 0.163 µM)
[16]; 1% FBS added to the media
  MIC: 0.125 µg/mL
[16]; 5% FBS added to the media
  MIC: 1 µg/mL
[16]; 10% FBS added to the media
  MIC: 4 µg/mL
[17]; read-out: MBC
  MBC: 64 µg/mL (≈ 174 µM)
[17]; read-out: MIC
  MIC: 0.5 µg/mL (≈ 1.36 µM)
[18]; Caco-2 cells, 24 and 48 h, MTS assay
  non-toxic concentration: higher than 64 µg/mL
[18]; Caco-2 non-toxic concentration versus corresponding MIC
  non-toxic concentration relative to MIC against N. gonorrhoeae: 512 times
[19]
  MIC: 0.125 µg/mL (≈ 0.34 µM)
[20]
  MBC: 0.06 µg/mL (≈ 0.163 µM)
  MIC: 0.06 µg/mL (≈ 0.163 µM)

## CNC(=C[N+](=O)[O-])NCCSCc1ccc(CN(C)C)o1 [Ranitidine]
[21]
  Notes (permeability class): Low Permeability Control
